Test results as given in patent US6710051B1, “Screening method” (Klaus Trier APS, priority 1997, dated 2004).
Where two headings read alike, the source gives them in different places. Marks after values point to notes of the source that are not given here.

What was measured:
[1] = test system: eye; conditions: test animals exposed to visual deprivation; cited from earlier work
[2] = test system: sclera; experiment: Content of collagen specific amino acids in rabbit sclera after long term treatment (HPLC); format: in vivo; parameters: Hydroxylysine Decr. compared to the control / Hydroxyproline Inc. compared to the control / Proline Inc. compared to the control: concentration or dose not given beside the values; conditions: for Hydroxylysine content / Hydroxyproline content / Proline content: dried defatted weight
Excerpt: (§1) Test animal: Charles River Deutschland Chinchilla Bastard female rabbits.
(§2) Number of animals: 6 test animals and 6 control animals
(§3) Age: approximately 8 weeks at the commencement of the test.
(§4) Weight: 1.4-1.9 kg at the commencement of the test.
(§5) Cages: The animals live in identical cages made of stainless steel (Scanbur), length 1 m, depth 0.52 m, height 0.5 m.
(§6) Amount of food: Increasing from 75 g per day at the commencement of the test up to 130 g after three months.
(§7) Experimental drinking water 1 contained theophyllin in a dose equivalent of 27 mg increasing to 63 mg (added as theophyllin and ethylendiamin in a dose of 33 to 77 mg) daily.
(§8) Experimental drinking water 2 contained fluoxetine (Fontex, Lilly) in a dose equivalent of 2 mg increasing to 5 mg daily.
(§9) Experimental diet 3 was added 7-methylxanthine 500 mg per kg Stanrab standard diet equivalent of a daily 7-methylxanthine dose of […] per day.
(§10) Experimental diet 4 was added theobromine (3,7-dimethylxanthine) 500 mg per kg Stanrab standard diet equivalent of a daily theobromine dose of […] per day.
(§11) Experimental diet 5 was added acetazolamide 500 mg per kg Stanrab standard diet equivalent of a daily acetazolamide dose of […] per day.
(§12) Collection of sample: Sclera biopsies are taken for analysis for proteoglycane content, distribution between the individual glycosaminoglycanes and the content of collagen specific amino acids. Four tests from each animal: Two samples from the front, 5×10 mm along limbus (without cornea), and two samples from the back, punch 10 mm corresponding to the center of the retina. Furthermore, tests are taken for electron microscopy (EM) from two animals in each group.
Samples for analysis for content of collagen specific amino acids are frozen down immediately. The amino acid content is determined by HPLC-chromatography.
The dried tissue with constant weight is minced into very fine particles with a pair of scissors, approximately 20 per piece of tissue. The small flakes from each original piece of tissue ate divided into two equally sized portions, one of which is employed for hydrolysis and the other one is kept for reference. The constant dry weight of each portion is known.
From each resolubilized hydrolysate 3 aliquots of each 8 microliters and 3 aliquots of 40 μl are taken and transferred to separate polypropylene tubes in which 20 microliters of a solution of internal standard substances citrulline and 2 aminobutyric acid were added where the further method takes place.
The taken aliquots from hydrolysate are dried in a vacuum exsiccator at 35° C. over night and subsequently submitted to derivatization with phenylisothiocyanate.
The resulting phenylisothiocarbamates are transferred to the HPLC instrument for separation and quantification. A new set of calibration curves is established, 1 curve for each of the 19 amino acids, prior to the analysis of the samples from one investigation.
The concentration range of standard samples exceed the ranges of amino acid concentrations in the unknowns. Hydroxyproline and proline are quantitated from the 8 microliter aliquots, and hydroxylysine is quantitated from the 40 microliter aliquots.

[3] = test system: sclera; experiment: Content of proteoglycanes in rabbit sclera after long term treatment (alcian blue method); format: in vivo; parameters: Proteoglycanes Decrease compared to the control, anterior sclera / Proteoglycanes Increase compared to the control, anterior sclera / Proteoglycanes Increase compared to the control, posterior sclera / Effect on proteoglycan content of posterior sclera in % compared to control: concentration or dose not given beside the values; conditions: for Effect on proteoglycan content of posterior sclera in % compared to control: rabbit, Examples 2 and 4
Method: as §1, §2, §3, §4
Lightness/Darkness cycle: 12/12 hours.
as §5
Food: Stanrab standard diet from Special Diet Services, P.O. Box 705, Witham Essex CM8 3AD, UK (further details, see Table A).
as §6, §7, §8
Experimental diet 2 was added 4.5 g L-cystine per kg Stanrab standard diet equivalent of a daily L-cystine dose of 338 mg increasing to 585 mg per day. With respect to the supplement of L-cystine, the normal intake per day of the standard diet is 218 mg increasing to 377 mg L-cystine.
as §9, §10, §11
Experimental diet 6 was added 4.5 g L-ornithine per kg Stanrab standard diet equivalent of a daily L-ornithine dose of 338 mg increasing to 585 mg per day.
as §12
Analyses: Samples for proteoglycane analysis are frozen down immediately. The samples are analyzed by Wieslab AB, IDEON, S-223 70 Lund, Sweden, by means of a method which has been described by Björnsson, S., Analytical Biochemistry 210, 282-291 (1993). The method comprises extraction by 20 microliters of 4 M guanidine-HCl, 50 Mm sodium acetate per mg wet weight over night by room temperatures. The extracts are centrifuged in order to remove debris. 20 microliters of supernatant are reduced 1/10 in extraction buffer and 20 microliters of reduced supernatant are mixed with 10 microliters of reagent 1 (see Björnsson, S., Analytical biochemistry 210, 282-291 (1993)) on a shaking table for 15 minutes. 200 microliters of reagent 2 are added and the tests are incubated for 60 minutes in order to precipitate the proteoglycanes. The proteoglycane/alcian blue precipitate is transferred to 96-wells MillBlotD apparatus and washed with 2×200 microliters of 40% DMSO, 0.05 M of MgCl2. The colour intensity of the wells are quantitated by microtech E3 scanner and Scan Analysis software (Biosoft, Cambridge, U.K.). Chrondroitine-6-sulphate (Sigma C4384) is used as the calibrator. All samples are analyzed in duplicate.
The results of longterm treatment with each of the 8 substances specified above are shown in Example 2 (treatment for 12 weeks) and Example 4 (treatment for 10 weeks).

[4] = test system: retinal pigment epithelium; experiment: c-wave at ERG and standing potential of the eye; conditions: in vivo
Excerpt: Registration of c-Wave at ERG in animals (e.g. rabbits) is a well-developed examination technique (Skoog, K. O., Nilsson, S. E. G., Acta Ophthalmol. (Kph), 52: 759-773 (1974), Jarkman, S., Skoog, K. O., Doc. Ophthalmol., 60: 383-392 (1985)). Also intraoccular administration of test substances for test animals is also a well-described-technique (Textorius O., Doc. Ophthalmol., 63:349-358 (1986)). Alternatively, test substances can be administered intravenously (Jarkman, S., Doc. Ophthalmol. 60: 375-382 (1985)).

[5] = humans; cited from earlier work
[6] = rabbits; cited from earlier work
[7] = test system: eye; conditions: animal, abnormal postnatal growth of the eye; cited from earlier work
[8] = anterior sclera, 3 months treatment
[9] = posterior sclera, 3 months treatment

Structure (SMILES): CN1CCc2cccc3c2[C@H]1Cc1ccc(O)c(O)c1-3 [apomorphine]
- development of myopia [1]: inhibits

Structure (SMILES): Cn1c(=O)c2[nH]cnc2n(C)c1=O [Theophylline, 1,3-Dimethylxanthine]
- content of hydroxylysine (in words) ([2]; comment to the examples): reduces
- content of the collagen specific amino acids hydroxyproline and proline (in words) ([2]; comment to the examples): increase
- content of proteoglycanes in sclera (in words) ([3]; comment to the examples): reduces
- Effect on proteoglycan content of posterior sclera in % compared to control [3]: 100%
- c-wave at ERG [4]: reduces
- standing potential of the eye [4]: reduces

Structure (SMILES): Cn1c(=O)c2c(ncn2C)n(C)c1=O [Caffeine, 1,3,7-Trimethylxanthine]
- Hydroxyproline Inc. compared to the control [2, 8]: 14%
- Proline Inc. compared to the control [2, 8]: 12%
- Hydroxylysine content [2, 8]: 39 +/− 19 nanomol/mg tissue
- Hydroxyproline content [2, 8]: 688 +/− 36* nanomol/mg tissue
- Proline content [2, 8]: 993 +/− 18* nanomol/mg tissue
- Hydroxylysine Decr. compared to the control [2, 9]: 14%
- Hydroxyproline Inc. compared to the control [2, 9]: 22%
- Proline Inc. compared to the control [2, 9]: 17%
- Hydroxylysine content [2, 9]: 37 +/− 16 nanomol/mg tissue
- Hydroxyproline content [2, 9]: 668 +/− 61 nanomol/mg tissue
- Proline content [2, 9]: 947 +/− 38 nanomol/mg tissue
- Proteoglycanes Increase compared to the control, anterior sclera ([3]; 3 months treatment): 19%
- Proteoglycanes Increase compared to the control, posterior sclera ([3]; 3 months treatment): 19%
- Effect on proteoglycan content of posterior sclera in % compared to control [3]: 119%
- Content of proteoglycanes, anterior sclera ([3]; wet weight, 3 months treatment): 3.2 +/− 0.8 μg PG/mg tissue
- Content of proteoglycanes, posterior sclera ([3]; wet weight, 3 months treatment): 3.2 +/− 0.5 μg PG/mg tissue
- half-life period [5]: approximately 5 hours
- half-life period [6]: approximately 1 hour

Structure (SMILES): CN1CCN(CC(=O)N2c3ccccc3C(=O)Nc3cccnc32)CC1 [pirenzepine]
- axial longitudinal growth [7]: inhibited
